Reference: patent US8420574B2, “Plant growth enhancement with combinations of PESA and herbicides” (Valent BioSciences Corporation, priority 2009, dated 2013)
Counter-ions that a name gives are not always drawn.

Experiments:
Format in all cases: in vivo
[1] = test system: cotton; assay: Pouch assay; root and shoot length of cotton; details: for Shoot Length / Root Length: 30 ppm PESA salt; for Shoot Length: untreated 4.7; for Root Length: untreated 7.7
Procedure: (§1) Seeds were placed in germination pouches consisting of germination paper hydrated with sterile water that was an insert in a gas-permeable 16×14 cm plastic pouch (CYG Pouch; Mega International, St. Paul, Minn.). In these examples, in pouch solution evaluation, PESA sodium salt or other active ingredients were added to the sterile water in the pouch. The pouches were arranged in a completely randomized block design in growth racks and placed in 19-liter polycarbonate food storage containers (Rubbermaid Commercial Products, Winchester, Va.). The sealed containers were held in an upright growth cabinet maintained at 25 C with a 12 hour light: 12 hour dark photoperiod. After 6 days, the containers were removed from the growth cabinet, and the lengths of the roots and shoot were measured.

[2] = test system: rice cv. Cheniere; assay: Emergence of seed-treated rice seeded onto soil previously treated with herbicide; details: for Percent Emergence at 9 days after planting: untreated 90
From the text: Seed was sieved with a screen of mesh size appropriate to remove broken seeds and small trash. Cracked or otherwise damaged seeds were removed. The seed was well mixed, and 50 g samples were weighed into small plastic trays. […] A fungicide (Maxim XL; Syngenta Agricultural Products, Greensboro, N.C.), a polymeric binder (CF-Clear; Becker-Underwood, Ames, Iowa), and a colorant (Color Coat Red; Becker-Underwood, Ames, Iowa) were also included in the slurry at label rates. A small aliquot of this slurry was applied to the seed using the Hege 11 coater (Wintersteiger, Salt Lake City, Utah) with a six-inch bowl at a slurry rate of 30 ounces per 100 lbs of seed. The slurry was deposited drop-wise on the spinning disk atomizer using a syringe.
Rice cv. […] It was then seeded onto soil which was previously sprayed with the pendimethalin herbicide Prowl H2O® (BASF Agricultural Products, Research Triangle Park, N.C.).
After seed treatment, rice was seeded into soil previously treated with the dithiopyr herbicide Dimension®.
Rice seed treated with PESA was tested for its ability to protect rice from the herbicide Roundup WeatherMax® (glyphosate). After seed treatment, rice was seeded into soil previously treated with the Roundup WeatherMax®.

[3] = test system: rice cv. Cheniere; assay: Pouch assay with PESA salt seed treatment; root length; details: for Root Length: untreated 9.8
Procedure: Procedure for Treating Samples of Seed in the Laboratory
Seed was sieved with a screen of mesh size appropriate to remove broken seeds and small trash. Cracked or otherwise damaged seeds were removed. The seed was well mixed, and 50 g samples were weighed into small plastic trays. Seed treatment slurries were made by adding measured amounts of PESA or its salts and other AIs to sufficient water to bring them up to a standard volume, typically 2 ml. A fungicide (Maxim XL; Syngenta Agricultural Products, Greensboro, N.C.), a polymeric binder (CF-Clear; Becker-Underwood, Ames, Iowa), and a colorant (Color Coat Red; Becker-Underwood, Ames, Iowa) were also included in the slurry at label rates. A small aliquot of this slurry was applied to the seed using the Hege 11 coater (Wintersteiger, Salt Lake City, Utah) with a six-inch bowl at a slurry rate of 30 ounces per 100 lbs of seed. The slurry was deposited drop-wise on the spinning disk atomizer using a syringe.
After treatment, each seed sample was placed in plastic trays and dried at a room temperature for 20 to 60 minutes. The samples were then placed in small plastic bags. Samples were spot-checked using a water activity meter to make sure the water activity is below 0.7.
as §1
Rice cv. Chemere was treated with PESA sodium salt prior to growing in the pouch. The treated seeds were then grown in the pouch in a dose-dependent series of trifluralin concentrations (Table 2). […] This confirms that seed treatment with the PESA salt protects or safens rice from the negative effects of trifluralin herbicide on root growth.

[4] = test system: rice cv. Nipponbare; assay: Hydroponic assay; total root length and shoot length; details: for Shoot Length / Total Root Length: 40 ppm PESA salt
Procedure: Where hydroponically-grown rice was used in studies, the seeds were pre-incubated in water at 30 C for 2 days to stimulate germination. Three seeds were placed on a float and cultivated hydroponically in a test tube (25 mm×200 mm), which contained 50 ml of Kimura B nutrient solution at ⅛th strength supplemented with herbicides and PESA sodium salt. The exposure of the roots to the light was prevented by wrapping the tubes with aluminum foil. The rice seedlings were incubated in a growth cabinet at 25 C under continuous light for 14 days, and the total root length and shoot length were measured. Total root length (cm) was the root length/plant determined following scanning with WinRhizo software (Regent Instruments INC, Toronto, Canada).

[5] = 40 ppm PESA salt with 0.1 ppm dicamba
[6] = 40 ppm PESA salt with 0.1 ppm imazosulfuron
[7] = 40 ppm PESA salt with 1 ppm flumioxazin

For `O=C(O)CCC(=O)NCCc1ccccc1` [PESA salt, N-(2-phenylethyl)succinamic acid], the “Shoot Length” value ([1]; 0 ppm chlorsulfuron) was 5.2 cm, the “Root Length” value ([1]; 0 ppm chlorsulfuron) was 14.0 cm and the “Shoot Length” value ([1]; 1 ppm chlorsulfuron) was 2.7 cm. For the same compound, the “Root Length” value ([1]; 1 ppm chlorsulfuron) was 2.1 cm, the “Shoot Length” value ([1]; 10 ppm chlorsulfuron) was 1.7 cm and the “Root Length” value ([1]; 10 ppm chlorsulfuron) was 2.0 cm. The “Shoot Length” value ([1]; 100 ppm chlorsulfuron) was 1.7 cm, the “Root Length” value ([1]; 100 ppm chlorsulfuron) was 2.0 cm and the “protection of root length from herbicide” value ([1]; PESA salt with chlorsulfuron) was “unable to overcome the negative effects of chlorsulfuron on root length”. The “Percent Emergence at 12 days after planting” value (“Percent Emergence at 12 days” below) ([2]; Dimension (dithiopyr) 0.25 pints/acre, seed treatment none (Control), 1 g GA3 and/or 50 g PESA salt per 100 lbs of seed, untreated 72.1) was 61.0%, the “Percent Emergence at 12 days” value ([2]; Dimension (dithiopyr) 0.5 pints/acre, seed treatment none (Control), 1 g GA3 and/or 50 g PESA salt per 100 lbs of seed, untreated 72.1) was 13.9% and the “protection of emergence from glyphosate” value ([2]; PESA seed treatment, soil treated with Roundup WeatherMax, at 90 μg/cm^2) was “could protect the rice seedlings from glyphosate”. The “Percent Emergence at 12 days” value ([2]; Prowl (pendimethalin) 0.25 pints/acre, seed treatment none (Control), 1 g GA3 and/or 50 g PESA salt per 100 lbs of seed, untreated 84.5) was 79.0%, the “Percent Emergence at 12 days” value ([2]; Prowl (pendimethalin) 0.5 pints/acre, seed treatment none (Control), 1 g GA3 and/or 50 g PESA salt per 100 lbs of seed, untreated 84.5) was 80.7% and the “Percent Emergence at 12 days” value ([2]; Prowl (pendimethalin) 2 pints/acre, seed treatment none (Control), 1 g GA3 and/or 50 g PESA salt per 100 lbs of seed, untreated 84.5) was 61.0%. For the same compound, the “Percent Emergence at 12 days” value ([2]; no Dimension (Control), seed treatment 1 g GA3 and/or 50 g PESA salt per 100 lbs of seed, untreated 72.1) was 77.2%, the “Percent Emergence at 12 days” value ([2]; no Prowl (Control), seed treatment 1 g GA3 and/or 50 g PESA salt per 100 lbs of seed, untreated 84.5) was 86.1% and the “Percent Emergence at 9 days after planting” value (from here on “Percent Emergence at 9 days”) ([2]; seed treatment 25 g PESA salt per 100 kg of seed, glyphosate 0 μg/cm2) was 80%. For the same compound, the “Percent Emergence at 9 days” value ([2]; seed treatment 25 g PESA salt per 100 kg of seed, glyphosate 23 μg/cm2) was 84%, the “Percent Emergence at 9 days” value ([2]; seed treatment 25 g PESA salt per 100 kg of seed, glyphosate 90 μg/cm2) was 28% and the “Percent Emergence at 9 days” value ([2]; seed treatment 50 g PESA salt per 100 kg of seed, glyphosate 0 μg/cm2) was 92%. For the same compound, the “Percent Emergence at 9 days” value ([2]; seed treatment 50 g PESA salt per 100 kg of seed, glyphosate 23 μg/cm2) was 78%, the “Percent Emergence at 9 days” value ([2]; seed treatment 50 g PESA salt per 100 kg of seed, glyphosate 90 μg/cm2) was 38% and the “protection of emergence from pendimethalin” value ([2]; seed treatment, soil sprayed with Prowl H2O, particularly at 2 pints/acre) was “could protect the rice seedlings from pendimethalin”. For the same compound, the “protection of emergence from dithiopyr” value ([2]; seed treatment, soil treated with Dimension, particularly at 0.25 and 0.5 pints/acre) was “could protect the rice seedlings from dithiopyr”, the “protection of root growth by seed treatment” value ([3]; PESA salt seed treatment, trifluralin 50 ppm) was “significant protection against intermediate rates of trifluralin (50 ppm)” and the “Root Length” value ([3]; seed treatment 10 g PESA salt/100 lbs of seed, 0 ppm trifluralin) was 10.7 cm. The “Root Length” value ([3]; seed treatment 10 g PESA salt/100 lbs of seed, 50 ppm trifluralin) was 4.6 cm, the “Root Length” value ([3]; seed treatment 10 g PESA salt/100 lbs of seed, 100 ppm trifluralin) was 0.3 cm and the “Root Length” value ([3]; seed treatment 25 g PESA salt/100 lbs of seed, 0 ppm trifluralin) was 10.1 cm. For the same compound, the “Root Length” value ([3]; seed treatment 25 g PESA salt/100 lbs of seed, 50 ppm trifluralin) was 5.2 cm, the “Root Length” value ([3]; seed treatment 25 g PESA salt/100 lbs of seed, 100 ppm trifluralin) was 0.3 cm and the “Root Length” value ([3]; seed treatment 50 g PESA salt/100 lbs of seed, 0 ppm trifluralin) was 10.3 cm. The “Root Length” value ([3]; seed treatment 50 g PESA salt/100 lbs of seed, 50 ppm trifluralin) was 6.0 cm, the “Root Length” value ([3]; seed treatment 50 g PESA salt/100 lbs of seed, 100 ppm trifluralin) was 0.3 cm and the “protection of roots from herbicide” value [4, 5] was “largely protected the roots from the negative effects of dicamba”. The “protection of shoots from herbicide” value [4, 5] was “largely protected the shoots from the negative effects of dicamba”, the “total root length increased by, as compared with untreated control” value [4, 5] was 61% and the “protection of roots from herbicide” value [4, 6] was “largely protected the roots from the negative effects of imazosulfuron”. For the same compound, the “total root length increased by, as compared with untreated control” value [4, 6] was 87%, the “protection of roots from herbicide” value [4, 7] was “protected the roots from the negative effects of flumioxazin” and the “protection of shoots from herbicide” value [4, 7] was “largely protected the shoots from the negative effects of flumioxazin”. For the same compound, the “protection of shoots from herbicide” value ([4]; 40 ppm PESA salt with 1 ppm imazosulfuron) was “largely protected the shoots from the negative effects of the herbicide”, the “protection of roots from herbicide” value ([4]; 40 ppm PESA salt with 3 ppm clodinafop-propargyl) was “protected the roots from the negative effects of the herbicide” and the “Shoot Length” value ([4]; 0 ppm clodinafop-propargyl, untreated 10.6) was 13.3 cm. For the same compound, the “Total Root Length” value ([4]; 0 ppm clodinafop-propargyl, untreated 52.1) was 193.9 cm, the “Shoot Length” value ([4]; 0 ppm dicamba, untreated 11.4) was 15.1 cm and the “Total Root Length” value ([4]; 0 ppm dicamba, untreated 44.9) was 121.9 cm. For the same compound, the “Shoot Length” value ([4]; 0 ppm flumioxazin, untreated 10.6) was 13.3 cm, the “Total Root Length” value ([4]; 0 ppm flumioxazin, untreated 52.1) was 193.9 cm and the “Shoot Length” value ([4]; 0 ppm imazosulfuron, untreated 11.4) was 15.1 cm. The “Total Root Length” value ([4]; 0 ppm imazosulfuron, untreated 44.9) was 121.9 cm, the “Shoot Length” value ([4]; 0.01 ppm dicamba, untreated 11.4) was 15.1 cm and the “Total Root Length” value ([4]; 0.01 ppm dicamba, untreated 44.9) was 155.4 cm. The “Shoot Length” value ([4]; 0.01 ppm imazosulfuron, untreated 11.4) was 14.5 cm, the “Total Root Length” value ([4]; 0.01 ppm imazosulfuron, untreated 44.9) was 169.8 cm and the “Shoot Length” value ([4]; 0.1 ppm dicamba, untreated 11.4) was 12.5 cm. For the same compound, the “Total Root Length” value ([4]; 0.1 ppm dicamba, untreated 44.9) was 72.5 cm, the “Shoot Length” value ([4]; 0.1 ppm flumioxazin, untreated 10.6) was 12.3 cm and the “Total Root Length” value ([4]; 0.1 ppm flumioxazin, untreated 52.1) was 132.6 cm. For the same compound, the “Shoot Length” value ([4]; 0.1 ppm imazosulfuron, untreated 11.4) was 13.2 cm, the “Total Root Length” value ([4]; 0.1 ppm imazosulfuron, untreated 44.9) was 83.8 cm and the “Shoot Length” value ([4]; 0.3 ppm clodinafop-propargyl, untreated 10.6) was 14.3 cm. The “Total Root Length” value ([4]; 0.3 ppm clodinafop-propargyl, untreated 52.1) was 202.6 cm, the “Shoot Length” value ([4]; 0.3 ppm flumioxazin, untreated 10.6) was 10.3 cm and the “Total Root Length” value ([4]; 0.3 ppm flumioxazin, untreated 52.1) was 102.8 cm. The “Shoot Length” value ([4]; 1 ppm clodinafop-propargyl, untreated 10.6) was 13.6 cm, the “Total Root Length” value ([4]; 1 ppm clodinafop-propargyl, untreated 52.1) was 110.5 cm and the “Shoot Length” value ([4]; 1 ppm dicamba, untreated 11.4) was 3.6 cm. For the same compound, the “Total Root Length” value ([4]; 1 ppm dicamba, untreated 44.9) was 9.2 cm, the “Shoot Length” value ([4]; 1 ppm flumioxazin, untreated 10.6) was 7.5 cm and the “Total Root Length” value ([4]; 1 ppm flumioxazin, untreated 52.1) was 53 cm. The “Shoot Length” value ([4]; 1 ppm imazosulfuron, untreated 11.4) was 7.9 cm, the “Total Root Length” value ([4]; 1 ppm imazosulfuron, untreated 44.9) was 13.8 cm and the “Shoot Length” value ([4]; 3 ppm clodinafop-propargyl, untreated 10.6) was 11.8 cm. For the same compound, the “Total Root Length” value ([4]; 3 ppm clodinafop-propargyl, untreated 52.1) was 44.3 cm, the “Shoot Length” value ([4]; 3 ppm flumioxazin, untreated 10.6) was 6.5 cm and the “Total Root Length” value ([4]; 3 ppm flumioxazin, untreated 52.1) was 24.4 cm.
